{"source": "paper PMC5738391", "about": "“Three classes of ligands each bind to distinct sites on the orphan G protein-coupled receptor GPR84” (Scientific Reports, 2017)", "key": {"[1]": {"tested_on": "GPR84-Gαi2 fusion protein", "experiment": "[35S]GTPγS binding, membranes expressing GPR84-Gαi2 fusion protein", "format": "biochemical, human", "conditions": "for direct agonism of GPR84, [35S]GTPγS binding: DIM analogs; for allosteric effect on concentration-response curves of orthosteric agonists incl. compound-1: increasing concentrations of analog", "from_the_text": "The only previous study[3] designed to explore the mode of binding of ligands to GPR84 employed a fusion protein[31],[32] in which the G protein Gαi1 was linked in-frame to the C-terminal tail of GPR84. […] These studies indicate that following pertussis toxin treatment of cells expressing the GPR84-Cys^352Ile Gαi2 fusion protein all agonist-induced binding of [^35S]GTPγS reflects incorporation of nucleotide into the receptor-linked G protein α subunit.\n(§1) Membranes were generated from Flp-In T-REx HEK293 cells treated with 100 ng/mL doxycycline to induce expression of the receptor construct of interest. Cells were washed with ice-cold phosphate-buffered saline, removed from dishes by scraping and centrifuged at 3000 rpm for 5 min at 4 °C. Pellets were resuspended in TE buffer (10 mM Tris-HCl, 0.1 mM EDTA; pH 7.5) containing a protease inhibitor mixture (Roche Applied Science, West Sussex, UK) and homogenized with a 5 ml hand-held homogenizer. This material was centrifuged at 1500 rpm for 5 min at 4 °C and the supernatant was further centrifuged at 50000 rpm for 45 min at 4 °C. The resulting pellet was resuspended in TE buffer and protein content was assessed using a BCA protein assay kit (Pierce, Fisher Scientific, Loughborough, UK).\n(§2) Initially, 5 μg of generated membrane protein was pre-incubated for 15 min at 25 °C in assay buffer (20 mM HEPES, 5 mM MgCl2; 160 mM NaCl; 1 μM GDP; 0.05% fatty acid-free bovine serum albumin; pH 7.5) containing the indicated ligand concentrations. […] The reaction was then initiated with addition of [^35S]GTPγS (50 nCi per tube), and the reaction was terminated after 45 minutes incubation at 30 °C by rapid filtration through GF/C glass filters using a 24-well Brandel cell harvester (Alpha Biotech, Glasgow, UK). Unbound radioligand was removed from filters by three washes with ice-cold phosphate buffered saline (pH 7.4) and filters were dried for 2–3 h at room temperature. Dried filters were added to 3 mL of Ultima Gold^TM XR (PerkinElmer Life Sciences, Beaconsfield, UK) and [^35S]GTPγS binding was determined by liquid scintillation spectrometry."}, "[2]": {"target": "T1, human GPR84 (FLAG-hGPR84-eYFP) (Homo sapiens, UniProt Q9NQS5)", "T1 construct": "expressed in transfected cells", "experiment": "[35S]GTPγS binding, membranes of cells expressing FLAG-hGPR84-eYFP", "format": "biochemical", "experimental": "as §1\n(§3) The reaction was then initiated with addition of [^35S]GTPγS (50 nCi per tube), and the reaction was terminated after 45 minutes incubation at 30 °C by rapid filtration through GF/C glass filters using a 24-well Brandel cell harvester (Alpha Biotech, Glasgow, UK). […] Dried filters were added to 3 mL of Ultima Gold^TM XR (PerkinElmer Life Sciences, Beaconsfield, UK) and [^35S]GTPγS binding was determined by liquid scintillation spectrometry.\nAll data are presented as means ± SEM of at least three independent experiments. Data analysis and curve fitting was carried out using the GraphPad Prism software package version 5.0b (GraphPad, San Diego). […] In case of inhibition experiments with antagonists an equivalent analysis was followed to fit an inverse sigmoidal curve. To perform the statistical analysis of curve parameters, data from multiple experiments were fitted independently and resulting curve fit values were analysed with indicated tests. For radioligand binding data, saturation binding curves were generated by fitting the specific binding, which was obtained by subtracting non-specific from total binding, to a one site specific binding model that allows calculation of Kd values for the radioligand at wild type and mutant receptors. To determine affinity of unlabelled ligands, data obtained in displacement assays were fit to an inverse three parameter sigmoidal curve constrained by radioligand affinity and concentration to allow for Ki calculation."}, "[3]": {"target": "T2, Arg^172Ala GPR84-Cys^352Ile Gαi2 fusion protein (Homo sapiens, UniProt Q9NQS5, R172A)", "T2 construct": "Cys352Ile Gαi2 (fusion partner, same polypeptide); expressed in transfected cells; host or cells: membranes of Flp-In T-REx 293 cells, doxycycline-induced", "T2 sequence (Q9NQS5 2-396 R172A)": "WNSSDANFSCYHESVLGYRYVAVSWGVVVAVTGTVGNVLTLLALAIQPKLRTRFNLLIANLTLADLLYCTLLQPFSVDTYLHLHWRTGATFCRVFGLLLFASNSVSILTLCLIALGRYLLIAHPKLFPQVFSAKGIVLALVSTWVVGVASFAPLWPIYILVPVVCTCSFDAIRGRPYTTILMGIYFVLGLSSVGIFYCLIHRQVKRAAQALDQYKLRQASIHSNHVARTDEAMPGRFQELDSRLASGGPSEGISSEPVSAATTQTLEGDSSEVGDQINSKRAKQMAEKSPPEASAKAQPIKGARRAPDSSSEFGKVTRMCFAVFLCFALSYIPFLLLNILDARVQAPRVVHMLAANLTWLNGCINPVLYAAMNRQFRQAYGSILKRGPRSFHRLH", "experiment": "[35S]GTPγS binding, Arg172Ala mutant fusion protein", "format": "biochemical", "from_the_text": "To try to identify how a MCFA might interact with GPR84 we turned to homology modelling studies. Although GPR84 is not closely related to the other GPCRs that respond to either short chain (FFA2, FFA3) or long chain (FFA1, FFA4) fatty acids[8],[9], in each of the other cases the carboxylate of the fatty acid is co-ordinated by one or more arginine residues located at or near the extracellular surface[12]–[14]. […] As we have highlighted recently[9] GPR84 and the β2-adrenoceptor are only distantly related whilst, of the currently available atomic level GPCR structures, the orexin OX1 receptor[34] has highest overall sequence identity (31%) with GPR84. We, therefore, generated and employed a new homology model of GPR84 based on the transmembrane domain architecture of the OX1 receptor (Fig. 6). However, because ECL2 of GPR84 is very similar in sequence to that of rhodopsin (Fig. 6a), with 43% residue identity over this region, we incorporated this knowledge into the modelling process. In the resulting hybrid model (Fig. 6a) Arg^172 within ECL2 is pointing into the potential binding cavity within the helical bundle. This was not the case when Nikaido et al.,[3] employed the β2-adrenoceptor-based model, probably because the ECL2 sequences of the β2-adrenoceptor and GPR84 have no relatedness. […] To assess this we mutated Arg^172 to Ala within the setting of the GPR84-Cys^352Ile Gαi2 fusion protein. […] Equivalent results were obtained in studies in which the Arg^172Ala mutation was introduced into the FLAG-hGPR84-eYFP construct (Fig. 7b).\nFLAG-humanGPR84-Gαi2 fusion proteins were constructed by replacing eYFP within the FLAG-humanGPR84-eYFP-pcDNA5/FRT/TO construct with sequence corresponding to Gαi2 or Cys^352Ile Gαi2 using NotI and XhoI restriction enzymes. Site-directed mutagenesis to generate point mutants of GPR84 was performed according to the QuikChange method (Stratagene, Cheshire, UK). The identity of all constructs was verified by nucleotide sequencing.\nas §2"}, "[4]": {"target": "GPR84-Cys^352Ile Gαi2 fusion protein (Homo sapiens, UniProt Q9NQS5)", "sequence (Q9NQS5 whole entry, the tested form may be a part)": "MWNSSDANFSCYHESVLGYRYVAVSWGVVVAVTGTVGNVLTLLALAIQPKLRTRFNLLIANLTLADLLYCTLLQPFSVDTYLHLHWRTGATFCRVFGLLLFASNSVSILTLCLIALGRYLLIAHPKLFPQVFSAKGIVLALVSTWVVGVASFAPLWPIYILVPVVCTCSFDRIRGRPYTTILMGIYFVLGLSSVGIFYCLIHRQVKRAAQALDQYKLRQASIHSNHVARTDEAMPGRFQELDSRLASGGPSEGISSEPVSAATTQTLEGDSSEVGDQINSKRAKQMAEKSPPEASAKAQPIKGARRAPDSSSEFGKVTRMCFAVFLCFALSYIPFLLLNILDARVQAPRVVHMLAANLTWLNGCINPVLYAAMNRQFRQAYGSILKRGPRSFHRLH", "sequence (P04899 2-355 C352I, further chain)": "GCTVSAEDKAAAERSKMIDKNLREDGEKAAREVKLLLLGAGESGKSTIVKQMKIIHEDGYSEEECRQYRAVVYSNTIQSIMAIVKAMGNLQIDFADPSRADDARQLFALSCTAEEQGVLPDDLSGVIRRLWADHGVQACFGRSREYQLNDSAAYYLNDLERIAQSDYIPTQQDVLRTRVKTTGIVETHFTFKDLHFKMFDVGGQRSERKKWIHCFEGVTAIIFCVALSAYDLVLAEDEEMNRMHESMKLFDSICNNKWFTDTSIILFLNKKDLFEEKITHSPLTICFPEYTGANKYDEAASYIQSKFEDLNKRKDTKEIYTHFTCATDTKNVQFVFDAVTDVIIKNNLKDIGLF", "experiment": "[35S]GTPγS binding, membranes expressing pertussis toxin-resistant GPR84-Cys352Ile Gαi2 fusion; operational model of allosteric modulation", "format": "biochemical", "conditions": "for measured potency compared between GPR84-Gαi2 and GPR84-Cys352Ile Gαi2 fusion constructs: [35S]GTPγS binding", "experimental": "The only previous study[3] designed to explore the mode of binding of ligands to GPR84 employed a fusion protein[31],[32] in which the G protein Gαi1 was linked in-frame to the C-terminal tail of GPR84.\nas §1, §3\nTo quantify the extent of allosteric interaction between pairs of ligands, data were analysed using an operational model of allosteric modulation described previously. The general version of this model can be depicted by the following equation: E=Em(τA[A](KB+αβ[B])+τB[B]KA)^n/([A]KB+KAKB+[B]KA+α[A][B])^n+(τA[A](KB+αβ[B])+τB[B]KA)^n where, E is the pharmacological effect, [A] and [B] are the orthosteric and allosteric compound concentrations at equilibrium, respectively; KA and KB are the equilibrium dissociation constants of the orthosteric and allosteric ligands respectively, denoting the binding affinities of the two ligands to the receptor; α is the binding cooperativity factor denoting the magnitude and direction of the allosteric effect on binding affinity of the orthosteric agonist to the receptor, β is the activation cooperativity factor representing the measure of the allosteric effect on orthosteric efficacy. τA and τB represent the intrinsic activity of the orthosteric and allosteric ligand, respectively. Em is the maximal possible system response and n denotes the slope factor of the transducer function. In case of global fitting of the allosterism data through this equation, Em and n values were always constrained and other parameters (KA, KB,τA, τB, α, β) were estimated."}, "[5]": {"target": "T3, Arg^172Lys GPR84-Cys^352Ile Gαi2 fusion protein (Homo sapiens, UniProt Q9NQS5, R172K)", "T3 construct": "Cys352Ile Gαi2 (fusion partner, same polypeptide); expressed in transfected cells; host or cells: membranes of Flp-In T-REx 293 cells, doxycycline-induced", "T3 sequence (Q9NQS5 2-396 R172K)": "as the sequence (Q9NQS5 2-396 R172A) above, with A171K counted along it", "experiment": "[35S]GTPγS binding, Arg172Lys mutant fusion protein", "format": "biochemical"}, "[6]": {"target": "T4, FLAG-Arg^174Ala hGPR84-eYFP (Homo sapiens, UniProt Q9NQS5, R174A)", "T4 construct": "expressed in transfected cells; host or cells: membranes of Flp-In T-REx 293 cells, doxycycline-induced", "T4 sequence (Q9NQS5 whole entry R174A)": "as the sequence (Q9NQS5 whole entry, the tested form may be a part) above, with R174A counted along it", "experiment": "[35S]GTPγS binding, Arg174Ala mutant receptor", "format": "biochemical"}, "[7]": {"conditions": "agonist compound-1, modulator 3a"}, "[8]": {"conditions": "agonist 3a, modulator compound-1"}}, "data": [{"molecule": "COc1ccc2[nH]cc(C(c3cc(F)cc(F)c3)c3c[nH]c4ccc(OC)cc34)c2c1", "note": "[3c]", "values": [{"measurement": "affinity for GPR84 (words, inferred from functional data)", "setting": "[1]", "result": "lack affinity"}, {"measurement": "direct agonism of GPR84, [35S]GTPγS binding", "setting": "[1]", "result": "inactive"}, {"measurement": "allosteric effect on concentration-response curves of orthosteric agonists incl. compound-1", "setting": "[1]", "result": "unable to effect the position of the concentration-response curves"}]}, {"molecule": "CCCCCCCCCC(=O)OC", "note": "[methyl decanoate]", "values": [{"measurement": "agonist activity, [35S]GTPγS binding", "setting": "[2]; membranes of doxycycline-induced cells", "result": "completely inactive"}]}, {"molecule": "COc1ccc2[nH]cc(C(c3ccc(C)cc3)c3c[nH]c4ccc(OC)cc34)c2c1", "note": "[3b]", "values": [{"measurement": "direct agonism of GPR84, [35S]GTPγS binding", "setting": "[1]", "result": "inactive"}]}, {"molecule": "O=c1nc(OCC2COCCO2)cc2n1CCc1cc(C#CCNc3ccccc3)ccc1-2", "note": "(stereo not shown) [Compound 107, 2-([1,4]dioxan-2-ylmethoxy)-9-(3-phenylamino-prop-1-ynyl)-6,7-dihydro-pyrimido[6,1-a]isoquinolin-4-one]", "values": [{"measurement": "ability to limit [35S]GTPγS binding induced by EC80 concentrations of C10 (50 μM), embelin (3 μM) and DIM (5 μM)", "setting": "[2]", "result": "more potent than 161"}, {"measurement": "mode of blockade of DIM agonism", "setting": "[2]; higher antagonist concentrations reduced maximal effect of DIM", "result": "non-competitive mode of blockade"}, {"measurement": "mode of blockade of embelin effects", "setting": "[2]; increasing concentrations of antagonist decreased maximal effect of embelin", "result": "non-competitive manner"}, {"measurement": "potency to block DIM-stimulated [35S]GTPγS binding, Arg172Ala versus GPR84-Cys352Ile Gαi2 fusion", "setting": "[3]", "result": "equal potency"}]}, {"molecule": "CCCCCCCCCCCC1=C(O)C(=O)C=C(O)C1=O", "note": "[embelin, 2,5-dihydroxy-3-undecyl-2,5-cyclohexadiene-1,4-dione]", "values": [{"measurement": "measured potency compared between GPR84-Gαi2 and GPR84-Cys352Ile Gαi2 fusion constructs", "setting": "[4]", "result": "indistinguishable"}, {"measurement": "logα", "setting": "[4]; agonist embelin, modulator DIM", "result": "1.22 ± 0.05"}, {"measurement": "logβ", "setting": "[4]; agonist embelin, modulator DIM", "result": "0.8 ± 0.02"}, {"measurement": "agonist response at Arg172Ala mutant", "setting": "[3]", "result": "no response"}, {"measurement": "agonist response at Arg172Lys mutant", "setting": "[5]", "result": "eliminated response"}, {"measurement": "effect of Arg174Ala mutation on agonist function or potency", "setting": "[6]", "result": "did not affect function or potency"}]}, {"molecule": "CCCCCCSc1nc(O)cc(O)n1", "note": "[compound-1, 2-(hexylthiol)pyridimine-4,6 diol]", "values": [{"measurement": "measured potency compared between GPR84-Gαi2 and GPR84-Cys352Ile Gαi2 fusion constructs", "setting": "[4]", "result": "indistinguishable"}, {"measurement": "logα", "setting": "[4]; [7]", "result": "1.75 ± 0.05"}, {"measurement": "logβ", "setting": "[4]; [7]", "result": "-0.1 ± 0.02"}, {"measurement": "logβ", "setting": "[4]; agonist compound-1, modulator DIM", "result": "-0.2 ± 0.05"}, {"measurement": "logα", "setting": "[4]; agonist compound-1, modulator DIM, operational model of allosterism", "result": "2.1 ± 0.07"}, {"measurement": "agonist response at Arg172Ala mutant", "setting": "[3]", "result": "no response"}, {"measurement": "agonist response at Arg172Lys mutant", "setting": "[5]", "result": "eliminated response"}, {"measurement": "effect of Arg174Ala mutation on agonist function or potency", "setting": "[6]", "result": "did not affect function or potency"}]}, {"molecule": "2-((S)-1-[1,4]dioxan-2-ylmethoxy)-9-(tetrahydro-pyran-4-yl-methoxymethyl)-6,7-dihydro-pyrimido[6,1-a]isoquinolin-4-one [Compound 161]", "values": [{"measurement": "ability to limit [35S]GTPγS binding induced by EC80 concentrations of C10 (50 μM), embelin (3 μM) and DIM (5 μM)", "setting": "[2]", "result": "in a concentration-dependent fashion"}]}, {"molecule": "COc1ccc2[nH]cc(Cc3c[nH]c4ccc(OC)cc34)c2c1", "note": "[3a]", "values": [{"measurement": "logα", "setting": "[4]; [8]", "result": "1.43 ± 0.08"}, {"measurement": "logβ", "setting": "[4]; [8]", "result": "1.2 ± 0.06"}, {"measurement": "Kd", "setting": "[4]; pKA (estimated for the agonist), agonist 3a, modulator compound-1", "result": 14.8, "unit": "µM"}, {"measurement": "Kb", "setting": "[4]; pKB (estimated for the modulator), modulator 3a, agonist compound-1", "result": 10, "unit": "µM"}, {"measurement": "direct agonism of GPR84, [35S]GTPγS binding", "setting": "[1]", "result": "direct agonism"}, {"measurement": "allosteric effect on concentration-response curves of orthosteric agonists incl. compound-1", "setting": "[1]", "result": "as large positive allosteric effects on the potency of the orthosteric agonist ligands as did DIM"}]}, {"molecule": "O=[N+]([O-])c1ccc2[nH]cc(Cc3c[nH]c4ccc([N+](=O)[O-])cc34)c2c1", "note": "[6a]", "values": [{"measurement": "direct agonism of GPR84, [35S]GTPγS binding", "setting": "[1]", "result": "direct agonism"}]}]}
